Assays:
[1] = Solid physical stability test at high humidity (25° C./92.5% RH), appearance and XRPD; type: physicochemical
Description: Samples (each about 100 mg) of the amorphous form of the compound of formula (I) were weighed in duplicates, and placed on the bottom of a glass sample bottle to spread out into a thin layer. The mouth of the glass sample bottle was sealed with aluminum foil which was pierced to form some holes thereon to ensure that the samples could sufficiently contact with the ambient air. The prepared samples were placed under the relative conditions of 25° C./92.5%, and detected for their physical stability on Day 10. Meanwhile, a sample (about 100 mg) of the amorphous form of the compound of formula (I) was separately weighed, placed on the bottom of the glass sample bottle which was sealed with a screw cap, and stored at −20° C. as control. On Day 10, all the samples were taken out and returned to room temperature. The samples were visually observed for their appearance changes, and detected by XRPD for their forms. By comparing the accelerated sample with the control sample, the solid physical stability of the compound of formula (I) was determined.

[2] = tested on: cytokines of PPAR-associated pathways; test: Effect on cytokines of PPAR-associated pathways; settings: no data shown
[3] = Stability tests of the amorphous form in various solvents, XRPD; type: physicochemical; settings: for Appearance: 40° C. 2 days
Description: A plurality of samples of the amorphous form of the compound of formula (I) (each about 20 mg) were respectively added to 0.3-0.4 mL of a single or mixed solvent as listed in the table below, and stirred at 40° C. After being stirred for 2 days, if the sample was still in a state of a solution or close to a solution, it was filtered, followed by natural evaporation of solvent; and if the sample was still a suspension, the sample was centrifuged for collecting the precipitates, and the supernate was placed in a fuming cupboard until the solvent was dried off. Then, the precipitates and the solids obtained after solvent evaporation were placed in a vacuum drying oven at 40° C. overnight. The solids in all the samples were collected and detected by XRPD for their states.

[4] = Solid stability test under high temperature and high humidity (40° C./75% humidity), HPLC; type: physicochemical
Description: Samples (each about 100 mg) of the amorphous form of the compound of formula (I) were weighed in duplicates, and placed on the bottom of a glass sample bottle to spread out into a thin layer. The mouth of the glass sample bottle was sealed with aluminum foil which was pierced to form some holes thereon to ensure that the samples could sufficiently contact with the ambient air. The samples were placed in a constant temperature and humidity chamber at 40° C./75% humidity. The samples stored under the above conditions were sampled and tested on Days 10, 30, 60, and 90. The test results were compared with the initial test results of Day 0.

[5] = 40° C./75% humidity, open, Day 10, HPLC
[6] = 40° C./75% humidity, open, Day 30, HPLC
[7] = 40° C./75% humidity, open, Day 60, HPLC
[8] = 40° C./75% humidity, open, Day 90, HPLC

With `CSc1ccc(C(=O)[C@@H]2CN(C(=O)Oc3ccccc3)C[C@H]2Cc2cc(C)c(OC(C)(C)C(=O)O)c(C)c2)cc1` as the molecule, how does the “stability at high humidity” value ([1]; 25° C./92.5% RH, Day 10) read?
Its value is “does not exhibit form and appearance changes”.

And the Appearance ([1]; 25° C./92.5% Relative Humidity (Open), Day 10)?
Its Appearance is “Off-white powder”.

And the Form ([1]; 25° C./92.5% Relative Humidity (Open), Day 10, XRPD)?
The Form was “Amorphous”.

What about the “effect on cytokines of PPAR-associated pathways” value [2] of the same molecule?
Its value is “obvious inhibitory effect”.

And the Appearance ([3]; 1,4-dioxane, about 20 mg in 0.3-0.4 mL, cell wraps: ...Solid precipitated after evaporation of solvent)?
Its Appearance is “Suspension (2 days)/Solid”.

What about the Appearance ([3]; Acetone, about 20 mg in 0.3-0.4 mL, cell wraps: ...Solid precipitated after evaporation of solvent) of the same molecule?
Its Appearance is “Suspension (2 days)/Solid”.

And the Appearance ([3]; Acetone:water = 3:1, about 20 mg in 0.3-0.4 mL, cell wraps: ...Solid precipitated after evaporation of solvent)?
Its Appearance is “Suspension (2 days)/Solid”.

And the Appearance ([3]; Acetonitrile, about 20 mg in 0.3-0.4 mL, cell wraps: ...Solid precipitated after evaporation of solvent)?
The Appearance was “Suspension (2 days)/Solid”.

What about the Appearance ([3]; Acetonitrile:water = 3:1, about 20 mg in 0.3-0.4 mL, cell wraps: ...Solid precipitated after evaporation of solvent) of the same molecule?
Its Appearance is “Suspension (2 days)/Solid”.

And the Appearance ([3]; Ethanol, about 20 mg in 0.3-0.4 mL, cell wraps: ...Solid precipitated after evaporation of solvent)?
Its Appearance is “Suspension (2 days)/Solid”.

What about the Appearance ([3]; Ethanol:water = 3:1, about 20 mg in 0.3-0.4 mL, cell wraps: ...Solid precipitated after evaporation of solvent) of the same molecule?
The Appearance was “Suspension (2 days)/Solid”.

And the Appearance ([3]; Ethyl acetate, about 20 mg in 0.3-0.4 mL, cell wraps: ...Solid precipitated after evaporation of solvent)?
Its Appearance is “Suspension (2 days)/Solid”.

And the Appearance ([3]; Methanol, about 20 mg in 0.3-0.4 mL, cell wraps: ...after evaporation of solvent)?
Its Appearance is “Solid precipitated after”.

And the “Results (form by XRPD)” value ([3]; Methanol, stirred at 40° C. 2 days)?
The value was “Amorphous”.

What about the Appearance ([3]; Methanol:water = 3:1, about 20 mg in 0.3-0.4 mL, cell wraps: ...after evaporation of solvent) of the same molecule?
Its Appearance is “Solid precipitated after”.

What about the “Results (form by XRPD)” value ([3]; Methanol:water = 3:1, stirred at 40° C. 2 days) of the same molecule?
The value was “Amorphous”.

What about the Appearance ([3]; Tetrafuran, about 20 mg in 0.3-0.4 mL, cell wraps: ...Solid precipitated after evaporation of solvent) of the same molecule?
The Appearance was “Suspension (2 days)/Solid”.

What about the “stability of form in various solvents” value ([3]; summary of Table 4) of the same molecule?
Its value is “does not exhibit any change of form”.

What about the Appearance ([4]; 40° C./75% humidity, open, Day 10) of the same molecule?
The Appearance was “Off-white powder”.

And the “Purity (%)” value [4, 5]?
The value was 97.49%.

What about the “Total Impurity (%)” value [4, 5] of the same molecule?
The value was 2.51%.

And the Appearance ([4]; 40° C./75% humidity, open, Day 30)?
Its Appearance is “Off-white powder”.

What about the “Purity (%)” value [4, 6] of the same molecule?
The value was 97.31%.

And the “Total Impurity (%)” value [4, 6]?
Its value is 2.69%.

What about the Appearance ([4]; 40° C./75% humidity, open, Day 60) of the same molecule?
The Appearance was “Off-white powder”.

And the “Purity (%)” value [4, 7]?
The value was 97.59%.

And the “Total Impurity (%)” value [4, 7]?
Its value is 2.41%.

And the Appearance ([4]; 40° C./75% humidity, open, Day 90)?
The Appearance was “Off-white powder”.

And the “Purity (%)” value [4, 8]?
The value was 97.28%.

What about the “Total Impurity (%)” value [4, 8] of the same molecule?
The value was 2.72%.

And the “stability at high temperature and humidity” value ([4]; 40° C./75% humidity, up to Day 90)?
Its value is “does not exhibit a significant change in content and impurities”.

What about the Appearance ([4]; Day 0 (initial)) of the same molecule?
Its Appearance is “Off-white powder”.

And the “Purity (%)” value ([4]; Day 0 (initial), HPLC)?
The value was 97.37%.

What about the “Total Impurity (%)” value ([4]; Day 0 (initial), HPLC) of the same molecule?
The value was 2.63%.
